Two compounds from article PMC8269058, “The Odorant-Binding Proteins of the Spider Mite Tetranychus urticae” (International Journal of Molecular Sciences, 2021) can be followed below.

Test [1] has as its target TurtOBP1. Briefly: fluorescent probe titration (blue shift) with purified recombinant protein. It is filed as binding, Tetranychus urticae.
In test [2] the target is TurtOBP4. Described as above. Format: binding, Tetranychus urticae.
For test [3], the target named is TurtOBP1. Briefly: competitive fluorescence binding assay, displacement of 1-NPN. Also on record: species or system Tetranychus urticae.
In test [4] the target is TurtOBP4. The test is described as above. Also on record: species or system Tetranychus urticae.

A word on the Kd: it is a measure of binding affinity in units of concentration. With `c1ccc(Nc2cccc3ccccc23)cc1` [1-NPN], the figures for the Kd in test [1] and in test [2] were 9.7 µM and 3.5 µM, respectively.

For `COc1cc(/C=C/C=O)ccc1O` [coniferyl aldehyde], the Kd in test [3] was 9.8 µM; in test [4], 6.4 µM.
